Experimental data published in US7306938B2, “High throughput screen for inhibitors of fatty acid biosynthesis in bacteria” (priority 1999, dated 2007).
Converted amounts (≈) assume the structure as drawn.

Assays:
[1] = tested on: B. subtilis reporter strains PY79(amy::PyhfB::lacZ, cat) and PY79(amy::PylpC::lacZ, cat); assay: Minimum inhibitory concentration (MIC) determination in 96-well microtiter plate, OD600 read; format: cell-based; details: Bacillus subtilis, 18 h, read-out: minimum inhibitory concentration (MIC)
Procedure: The minimum inhibitory concentrations (MIC) for cerulenin and triclosan were determined for each of the reporter strains. To determine the MIC, a compound of interest (e.g., cerulenin or triclosan) was placed in a 96-well microtiter plate such that the concentration of the compound varies in various wells of the plate (e.g., by using a series of 2-fold dilutions of the compound). Approximately 5,000 cells from a logarithmically-growing culture (e.g., the B. subtilis strain PY79) in Luria broth were added to each well (e.g., in a volume of 50-80 μl). The plate then was incubated at 37° C. for approximately 18 hours. The OD600 was then read to measure cell growth in each well of the plate. The lowest concentration of the compound that leads to complete killing of the culture (i.e., the concentration of compound for which the OD600 nm is equal to a control well that contains only media and the test compound) is deemed the MIC for the particular compound and bacterial strain. The MICs for cerulenin and triclosan were 12.5 μg/ml and 5 μg/ml, respectively, for both of the reporter strains. Such inhibitors can be used as lead compounds, which can subsequently be derivatized using standard medicinal chemistry techniques to produce antibacterial agents.

PyhfB promoter = assay: lacZ reporter assay of promoter induction, strain PY79(amy::PyhfB::lacZ, cat); format: cell-based, B. subtilis; details: various concentrations, 96-well microplate, 3 hours (FIG. 7)
Source text: (§1) Clones containing the PyhfB, PyjaXY, and PylpC promoters have been described in GenBank, and the accession numbers for these clones are set forth in Table 2.
(§2) The reporter strains used in these assays were constructed as follows. PCR products containing the promoters were digested with EcoRI and BamHI, and cloned into the multiple cloning site of pDG268, which also had been digested with EcoRI and BamHI. The plasmid pDG268 is a derivative of pGD364 (See, Cutting and Van der Horn, Molecular Biological Methods for Bacillus, eds. C. R. Harwood and S. M. Cutting, 1990, John Wiley and Sons, NY, N.Y., pp. 52-54). […]
(§3) The reporter strains were incubated, separately, with triclosan or cerulenin at various concentrations, as shown on the X-axes depicted in FIGS. 7 and 8. Each strain and an antibacterial agent were incubated in a 96-well microplate for 3 hours. β-galactosidase activity was detected using the Tropix Galacton Star™ chemiluminescent substrate (3-chloro-5-(4-methoxyspiro{1,2-dioxetane-3,2′-(4′chloro)-tricyclo-[3.3.1.1^3,7]decan}-4-yl)phenyl-B-D-galactopyranoside) and the detection method described below. The fold induction of promoter activity was calculated as the level of activity in the samples containing the antibacterial agent divided by the level of activity in the samples that lacked the agent. […]

PylpC promoter = assay: lacZ reporter assay of promoter induction, strain PY79(amy::PylpC::lacZ, cat); format: cell-based, B. subtilis; details: various concentrations, 96-well microplate, 3 hours (FIG. 8)
Source text: as §1, §2, §3

[2] = tested on: PyhfB, PyjaXY, PylpC, and PyydK promoters; assay: RNA (transcriptional) profiling of bacterial cells treated with FAB pathway inhibitors; format: cell-based, B. subtilis; details: cerulenin 0.5 or 5 μg/ml, triclosan 0.1 or 1 μg/ml; LB medium, 37° C., 10, 30, or 60 minutes
Source text: Genetic Constructs: Conventional transcriptional profiling methods can be used to identify promoters that have increased activity in the presence of antibacterial agents such as cerulenin and triclosan, which are inhibitors of FAB.

In the case of `Oc1cc(Cl)ccc1Oc1ccc(Cl)cc1Cl` [triclosan], the MIC [1] is reported as 5 µg/mL (≈ 17.3 µM), the “activity of the PyhfB promoter (lacZ reporter, β-galactosidase chemiluminescence)” value (PyhfB promoter) is reported as “increase the activity” and the “activity of the PylpC promoter (lacZ reporter, β-galactosidase chemiluminescence)” value (PylpC promoter) is reported as “increase the activity”. For the same molecule, the “activity of the PyhfB, PyjaXY, PylpC, and PyydK promoters (RNA profiling)” value [2] was “increase in activity”.
`C/C=C/C/C=C/CCC(=O)[C@H]1O[C@H]1C(N)=O` [cerulenin, 2,3-Epoxy-4-oxo-7,1-dodecadienamide] was tested, and the MIC [1] was 12.5 µg/mL (≈ 56 µM), the “activity of the PyhfB promoter (lacZ reporter, β-galactosidase chemiluminescence)” value (PyhfB promoter) was “increase the activity” and the “activity of the PylpC promoter (lacZ reporter, β-galactosidase chemiluminescence)” value (PylpC promoter) was “increase the activity”. For the same molecule, the “activity of the PyhfB, PyjaXY, PylpC, and PyydK promoters (RNA profiling)” value [2] was “increase in activity”.
